Laboratory results from patent US20130071368A1, “PREPARATION, USE OF PREPARATION FOR TREATMENT, AND METHOD OF TREATMENT OF INTESTINAL INFECTION” (FAYREFIELD FOODS LIMITED, priority 2007, published 2013).

Tested on: C. difficile infection
Assay: Anecdotal treatment of patients with C. difficile infection
Type: in vivo, human
Settings: patient, second presentation
Protocol: A patient was suffering severe symptoms of C. difficile infection, in spite of narrow-spectrum antibiotic treatment, for a period of approximately three months. The treatment protocol was then modified to include, additionally, the oral administration of cranberry puree and GOS at least once daily.
A further patient, presenting for the second time with symptoms of c. difficile was treated initially with metronidazole and then, subsequently, with vancomycin. […] At the point of administration of a mixture of galacto-oligosaccharide and cranberry puree the patient was recording 16 episodes of open bowel in a 24 hour period, was suffering from severe dehydration and was causing significant concern that death might imminently result.

Compound | effect of antibiotic treatment on symptoms of c. difficile
Cc1ncc([N+](=O)[O-])n1CCO [metronidazole] | Neither treatment was having any effect
CN[C@H](CC(C)C)C(=O)N[C@H]1C(=O)N[C@@H](CC(N)=O)C(=O)N[C@H]2C(=O)N[C@H]3C(=O)N[C@H](C(=O)N[C@H](C(=O)O)c4cc(O)cc(O)c4-c4cc3ccc4O)[C@H](O)c3ccc(c(Cl)c3)Oc3cc2cc(c3O[C@@H]2O[C@H](CO)[C@@H](O)[C@H](O)[C@H]2O[C@H]2C[C@](C)(N)[C@H](O)[C@H](C)O2)Oc2ccc(cc2Cl)[C@H]1O [vancomycin] | Neither treatment was having any effect
